ChEMBL document CHEMBL5727426, “Tetrahydroisoquinoline derived PRMT5-inhibitors” (2019)

Assay: Revised Biochemical Assay: Compounds of the invention may be tested for in vitro activity in the following assay: A histone H4 derived peptide is used as substrate (amino acid sequence: […]N H2). Full-length PRMT5 enzyme (NCBI Reference sequence NP_006100.2) was co-expressed with His6-MEP50 in insect cells and purified via Nickel immobilized metal affinity and gel filtration chromatography (the enzyme).The 6 μL reactions are run in Greiner brand black 384-well low volume assay plates. All reactions contained assay buffer (phosphate buffered saline, 0.01% (v/v) Tween-20, 0.01% (w/v) albumin from chicken egg white, 1 mM Dithiothreitol, 1 μM peptide substrate, 1 μM S-Adenosyl methionine, and 15 ng/reaction enzyme, with the enzyme being omitted from negative control reactions. Compounds were added in a volume of 100 nL from dilution series prepared in DMSO, positive and negative control reactions receiving the same volume DMSO without compound. The plates were sealed with adhesive seals and incubated for 4 hours at 37 degree Celsius. Reaction progress was measured using the Transcreener EPIGEN methyltransferase assay (BellBrook Labs, Madison, Wis.) as recommended by the manufacturer. To each reaction 2 μL detection mix were added, containing coupling enzymes, fluorescence polarisation tracer, and AMP antibody. Plates were incubated for 90 minutes before being read on a PerkinElmer EnVision plate reader in fluorescence polarisation mode.

| SMILES | IC50 [nM] |
| --- | --- |
| COC(=O)N1[C@@H]2CC[C@H]1CC(Oc1cc(C(=O)NC[C@@H](O)[C@@H]3Cc4ccccc4CN3)ccn1)C2 (stereo partly drawn) | 38 |
| Cc1ccc(C(=O)NC[C@@H](O)[C@@H]2Cc3ccccc3CN2)cn1 | 4660 |
| O=C(NC[C@@H](O)[C@@H]1Cc2ccccc2CN1)c1ccc2[nH]ncc2c1 | 2740 |
